The text below walks through data of patent US20250243171A1, “QUINAZOLINE COMPOUNDS FOR TREATMENT OF DISEASE” (Arthrosi Therapeutics, Inc., priority 2021, published 2025).

Common to all, as to assay: EC50 assay: Ba/F3 stable cell proliferation (CCK-8, 72 h)
Holding throughout (format): cell-based

Assay [1] addresses T1, Ba/F3 stable cells (Homo sapiens, UniProt P00533, DUP767-769, cells depend on it).
T1 construct: EC50 Ba/F3-EGFR V769-D770insASV; other: Ba/F3-EGFR V769-D770insASV cells, 72 h, CCK-8
As to conditions: Ba/F3-EGFR V769-D770insASV cells. The procedure: (§1) 4,000 Ba/F3 stable cells/90 μL/well were plated onto 96-well cell culture plate (Grenier, Cat.No. 655180) and incubated at 37° C. with a humidified atmosphere of 5% CO2 for 2 h. Then the cells were treated with 10 μL compounds at serial titration. The final DMSO concentration is 0.1%. The cells treated with 0.1% DMSO (Vetec, Cat.No.V900090) as a positive control (Max), and medium with 0.1% DMSO was as a negative control (Min). Incubated the cells at 37° C. for 72 h. 10 μL the cell proliferation reagent CCK-8 (Dojindo, Cat.No. CK04 1000T) was added into each well and incubated the plate at 37° C. for 4 hours, the GD value was measured by SPECTRAmax plus (Molecular Devices) at 450 nm. Data processing with Graphpad 7.0.

Assay [2] has as its target T2, Ba/F3 stable cells (Homo sapiens, UniProt P00533, DUP768-770, cells depend on it).
T2 construct: EC50 Ba/F3-EGFR D770-N771insSVD; other: Ba/F3-EGFR D770-N771insSVD cells, 72 h, CCK-8
As to conditions: Ba/F3-EGFR D770-N771insSVD cells. Here is the method:
as §1

For assay [3], the target named is T3, Ba/F3 stable cells (Homo sapiens, UniProt P00533, DUP771-773, cells depend on it).
T3 construct: EC50 Ba/F3-EGFR H773-V774insNPH; other: Ba/F3-EGFR H773-V774insNPH cells, 72 h, CCK-8
T3 sequence (P00533 with tags, fused parts or gaps DUP771-773): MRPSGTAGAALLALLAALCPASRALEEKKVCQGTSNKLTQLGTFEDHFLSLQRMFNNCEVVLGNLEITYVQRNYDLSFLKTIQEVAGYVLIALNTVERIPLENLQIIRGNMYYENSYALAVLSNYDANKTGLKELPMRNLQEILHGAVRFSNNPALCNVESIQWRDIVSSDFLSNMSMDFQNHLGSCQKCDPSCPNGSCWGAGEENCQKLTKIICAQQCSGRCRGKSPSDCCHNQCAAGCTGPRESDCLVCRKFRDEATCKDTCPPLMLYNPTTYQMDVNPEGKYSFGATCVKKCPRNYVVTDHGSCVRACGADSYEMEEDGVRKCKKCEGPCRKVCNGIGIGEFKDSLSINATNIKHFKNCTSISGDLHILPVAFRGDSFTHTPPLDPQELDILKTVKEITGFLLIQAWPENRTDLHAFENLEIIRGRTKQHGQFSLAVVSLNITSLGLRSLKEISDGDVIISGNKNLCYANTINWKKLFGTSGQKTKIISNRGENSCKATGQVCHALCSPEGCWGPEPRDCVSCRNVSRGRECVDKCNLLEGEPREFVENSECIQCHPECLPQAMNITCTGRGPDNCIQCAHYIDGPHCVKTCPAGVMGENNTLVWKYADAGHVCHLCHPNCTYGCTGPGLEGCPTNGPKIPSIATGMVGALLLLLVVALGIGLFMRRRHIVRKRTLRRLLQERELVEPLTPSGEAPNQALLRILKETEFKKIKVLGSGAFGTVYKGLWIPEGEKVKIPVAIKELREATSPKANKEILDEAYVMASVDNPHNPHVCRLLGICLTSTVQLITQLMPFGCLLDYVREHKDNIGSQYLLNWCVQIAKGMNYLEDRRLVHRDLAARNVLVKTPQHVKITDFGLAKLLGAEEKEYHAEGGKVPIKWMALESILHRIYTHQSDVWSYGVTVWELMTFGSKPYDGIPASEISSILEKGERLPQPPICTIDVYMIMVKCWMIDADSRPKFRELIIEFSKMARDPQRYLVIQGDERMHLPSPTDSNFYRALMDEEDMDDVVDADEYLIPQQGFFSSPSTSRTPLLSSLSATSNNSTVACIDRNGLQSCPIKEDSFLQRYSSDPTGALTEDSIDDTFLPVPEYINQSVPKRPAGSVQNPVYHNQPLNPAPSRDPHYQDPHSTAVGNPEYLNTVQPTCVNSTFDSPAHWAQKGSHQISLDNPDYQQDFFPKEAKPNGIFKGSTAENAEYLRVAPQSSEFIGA
The note with it: Ba/F3-EGFR H773-V774insNPH cells. Here is the method: as §1

Assay [4] concerns the target T4, Ba/F3 stable cells (Homo sapiens, UniProt P00533, INS763FQEA, cells depend on it).
T4 construct: EC50 Ba/F3-EGFR A763-Y764insFQEA; other: Ba/F3-EGFR A763-Y764insFQEA cells, 72 h, CCK-8
As to conditions: Ba/F3-EGFR A763-Y764insFQEA cells. The procedure:
as §1

The target in assay [5] is T5, Ba/F3 stable cells (Homo sapiens, UniProt P00533, T790M/L858R, cells depend on it).
T5 construct: EC50 Ba/F3-EGFR L858R-T790M; other: Ba/F3-EGFR L858R-T790M cells, 72 h, CCK-8
The note with it: Ba/F3-EGFR L858R-T790M cells. Here is the method:
as §1

Assay [6] deals with T6, Ba/F3 stable cells (Homo sapiens, UniProt P04626, DUP772-775, cells depend on it).
T6 construct: EC50 Ba/F3-HER2 A775-G776insYVMA; other: Ba/F3-HER2 A775-G776insYVMA cells, 72 h, CCK-8
T6 sequence (P04626 with tags, fused parts or gaps DUP772-775): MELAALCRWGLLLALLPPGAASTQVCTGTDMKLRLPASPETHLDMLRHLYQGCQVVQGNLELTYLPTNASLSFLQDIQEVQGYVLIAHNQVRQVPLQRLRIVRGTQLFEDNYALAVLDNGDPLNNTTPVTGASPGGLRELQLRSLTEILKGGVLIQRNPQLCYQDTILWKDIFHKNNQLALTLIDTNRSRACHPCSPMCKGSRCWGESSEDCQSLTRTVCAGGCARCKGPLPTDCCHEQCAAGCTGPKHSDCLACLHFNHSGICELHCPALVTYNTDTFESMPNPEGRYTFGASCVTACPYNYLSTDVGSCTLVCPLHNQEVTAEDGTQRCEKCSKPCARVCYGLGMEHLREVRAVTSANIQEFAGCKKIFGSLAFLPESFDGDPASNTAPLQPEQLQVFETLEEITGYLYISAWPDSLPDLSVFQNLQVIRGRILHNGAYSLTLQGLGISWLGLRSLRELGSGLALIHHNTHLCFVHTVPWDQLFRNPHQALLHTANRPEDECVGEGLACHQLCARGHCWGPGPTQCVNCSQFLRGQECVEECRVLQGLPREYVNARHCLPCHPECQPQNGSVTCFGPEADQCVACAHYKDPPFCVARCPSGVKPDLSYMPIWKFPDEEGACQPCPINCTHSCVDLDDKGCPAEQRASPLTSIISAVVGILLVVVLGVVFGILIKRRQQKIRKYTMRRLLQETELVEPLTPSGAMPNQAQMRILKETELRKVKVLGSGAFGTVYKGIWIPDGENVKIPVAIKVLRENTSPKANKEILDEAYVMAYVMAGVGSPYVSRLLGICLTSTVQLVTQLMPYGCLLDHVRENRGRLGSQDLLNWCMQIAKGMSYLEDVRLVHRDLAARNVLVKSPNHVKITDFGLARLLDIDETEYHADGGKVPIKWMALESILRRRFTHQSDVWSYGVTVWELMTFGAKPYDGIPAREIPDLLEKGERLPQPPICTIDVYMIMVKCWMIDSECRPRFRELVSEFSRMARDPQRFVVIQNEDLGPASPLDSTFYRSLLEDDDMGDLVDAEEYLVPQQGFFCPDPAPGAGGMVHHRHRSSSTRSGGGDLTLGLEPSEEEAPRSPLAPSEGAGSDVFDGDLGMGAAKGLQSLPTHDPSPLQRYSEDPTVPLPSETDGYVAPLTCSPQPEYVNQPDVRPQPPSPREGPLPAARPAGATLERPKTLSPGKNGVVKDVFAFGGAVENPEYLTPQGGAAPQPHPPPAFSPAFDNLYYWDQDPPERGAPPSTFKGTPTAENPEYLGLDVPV
As to conditions: Ba/F3-HER2 A775-G776insYVMA cells. Here is the method: as §1

T4 sequence (P00533 with tags, fused parts or gaps INS763FQEA): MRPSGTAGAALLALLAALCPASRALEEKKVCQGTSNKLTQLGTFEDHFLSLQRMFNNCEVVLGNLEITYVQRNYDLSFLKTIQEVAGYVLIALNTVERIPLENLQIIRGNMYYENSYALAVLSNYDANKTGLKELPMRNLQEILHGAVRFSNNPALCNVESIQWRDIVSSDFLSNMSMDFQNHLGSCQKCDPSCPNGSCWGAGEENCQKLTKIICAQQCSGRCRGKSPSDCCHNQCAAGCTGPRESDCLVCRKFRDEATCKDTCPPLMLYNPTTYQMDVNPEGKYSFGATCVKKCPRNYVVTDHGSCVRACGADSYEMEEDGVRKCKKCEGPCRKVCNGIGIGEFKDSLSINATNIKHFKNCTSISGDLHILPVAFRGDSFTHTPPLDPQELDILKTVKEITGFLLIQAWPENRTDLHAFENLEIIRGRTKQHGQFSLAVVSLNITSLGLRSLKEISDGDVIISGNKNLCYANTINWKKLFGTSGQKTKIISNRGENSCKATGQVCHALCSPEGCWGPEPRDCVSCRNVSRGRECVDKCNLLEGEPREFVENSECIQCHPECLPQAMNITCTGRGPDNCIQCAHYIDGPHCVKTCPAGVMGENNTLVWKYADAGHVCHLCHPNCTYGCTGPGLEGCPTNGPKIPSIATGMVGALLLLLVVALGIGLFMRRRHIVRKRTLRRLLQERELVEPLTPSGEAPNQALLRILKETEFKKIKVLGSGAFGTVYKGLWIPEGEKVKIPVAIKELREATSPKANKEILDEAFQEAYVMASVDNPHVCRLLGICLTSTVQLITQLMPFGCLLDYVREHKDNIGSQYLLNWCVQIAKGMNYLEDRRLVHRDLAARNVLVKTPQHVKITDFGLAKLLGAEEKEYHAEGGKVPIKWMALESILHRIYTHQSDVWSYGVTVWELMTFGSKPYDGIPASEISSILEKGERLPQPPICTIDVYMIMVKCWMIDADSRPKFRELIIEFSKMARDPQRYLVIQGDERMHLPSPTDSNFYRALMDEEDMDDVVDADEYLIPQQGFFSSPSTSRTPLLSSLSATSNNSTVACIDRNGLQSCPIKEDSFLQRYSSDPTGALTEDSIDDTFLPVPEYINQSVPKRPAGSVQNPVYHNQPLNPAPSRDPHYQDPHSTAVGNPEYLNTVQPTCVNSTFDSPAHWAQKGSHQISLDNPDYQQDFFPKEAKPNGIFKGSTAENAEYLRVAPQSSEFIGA
T2 sequence (P00533 with tags, fused parts or gaps DUP768-770): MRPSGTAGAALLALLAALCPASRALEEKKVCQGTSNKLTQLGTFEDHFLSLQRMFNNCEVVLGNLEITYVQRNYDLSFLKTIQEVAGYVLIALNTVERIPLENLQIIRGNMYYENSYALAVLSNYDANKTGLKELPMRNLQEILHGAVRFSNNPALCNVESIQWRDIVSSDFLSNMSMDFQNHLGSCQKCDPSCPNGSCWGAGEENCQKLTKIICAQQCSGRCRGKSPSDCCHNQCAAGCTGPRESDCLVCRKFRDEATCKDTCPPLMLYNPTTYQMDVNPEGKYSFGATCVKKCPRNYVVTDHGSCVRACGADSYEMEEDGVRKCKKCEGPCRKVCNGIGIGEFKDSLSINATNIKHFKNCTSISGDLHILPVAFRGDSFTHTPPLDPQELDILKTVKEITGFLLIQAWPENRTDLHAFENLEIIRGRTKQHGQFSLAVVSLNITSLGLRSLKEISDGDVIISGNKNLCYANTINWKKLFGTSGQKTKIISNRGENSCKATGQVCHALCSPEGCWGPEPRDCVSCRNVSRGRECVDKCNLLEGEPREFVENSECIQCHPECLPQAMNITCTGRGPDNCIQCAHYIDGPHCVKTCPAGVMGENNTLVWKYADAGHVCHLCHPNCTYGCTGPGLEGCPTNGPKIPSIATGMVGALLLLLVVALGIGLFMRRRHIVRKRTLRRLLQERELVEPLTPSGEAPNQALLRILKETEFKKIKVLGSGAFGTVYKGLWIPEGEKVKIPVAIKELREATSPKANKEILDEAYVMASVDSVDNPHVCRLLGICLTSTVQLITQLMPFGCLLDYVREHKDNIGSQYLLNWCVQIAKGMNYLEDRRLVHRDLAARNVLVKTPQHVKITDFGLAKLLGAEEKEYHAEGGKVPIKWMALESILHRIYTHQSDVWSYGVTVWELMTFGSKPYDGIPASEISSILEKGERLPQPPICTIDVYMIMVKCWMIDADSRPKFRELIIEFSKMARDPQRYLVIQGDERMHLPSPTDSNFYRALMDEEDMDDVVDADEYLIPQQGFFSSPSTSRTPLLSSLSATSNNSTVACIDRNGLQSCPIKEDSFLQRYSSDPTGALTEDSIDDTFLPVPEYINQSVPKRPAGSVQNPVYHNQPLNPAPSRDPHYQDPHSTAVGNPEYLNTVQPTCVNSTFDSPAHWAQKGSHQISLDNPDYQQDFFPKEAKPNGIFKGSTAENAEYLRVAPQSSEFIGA

Regarding `C=CC(=O)NCC1COc2cc3ncnc(Nc4ccc(Cl)c(Cl)c4F)c3cc21` (stereo not drawn) [Compound 34, N-((4-((3,4-dichloro-2-fluorophenyl)amino)-6,7-dihydrofuro[3,2-g]quinazolin-6-yl)methyl)acrylamide], the EC50 is 200 to 1000 nM on Ba/F3 stable cells [1]; 200 to 1000 nM at Ba/F3 stable cells [2]; not above 200 nM at Ba/F3 stable cells [3]; not above 200 nM at Ba/F3 stable cells [4]; more than 1000 nM on Ba/F3 stable cells [5]; not above 200 nM on Ba/F3 stable cells [6].

`[2H]C([2H])([2H])n1cn/c(=N\c2ccc(Cl)c(Cl)c2F)c2cc3c(cc21)OCC3CNC(=O)C=C` (stereo not drawn) [Compound 35, (Z)—N-((4-((3,4-dichloro-2-fluorophenyl)imino)-1-trideuteriomethyl-1,4,6,7-tetrahydrofuro[3,2-g]quinazolin-6-yl)methyl)acrylamide]: the EC50 on Ba/F3 stable cells [1], on Ba/F3 stable cells [2], at Ba/F3 stable cells [3], on Ba/F3 stable cells [4], at Ba/F3 stable cells [5] and at Ba/F3 stable cells [6] was more than 1000 nM in each case.

On to `C=C(F)C(=O)N1CC(c2cc3c(Nc4ccc(Cl)c(Cl)c4F)ncnc3cc2O[C@H]2CCOC2)C1` [Compound 37, (S)-1-(3-(4-((3,4-dichloro-2-fluorophenyl)amino)-7-((tetrahydrofuran-3-yl)oxy)quinazolin-6-yl)azetidin-1-yl)-2-fluoroprop-2-en-1-one], for which the EC50 is not above 200 nM at Ba/F3 stable cells [1]; 200 to 1000 nM on Ba/F3 stable cells [2]; 200 to 1000 nM at Ba/F3 stable cells [3]; not above 200 nM at Ba/F3 stable cells [4]; 200 to 1000 nM on Ba/F3 stable cells [5]; 200 to 1000 nM on Ba/F3 stable cells [6].

In the case of `C=C(F)C(=O)N1CC(c2cc3c(Nc4ccc(Cl)c(Cl)c4F)ncnc3cc2OC)C1` [Compound 38, 1-(3-(4-((3,4-dichloro-2-fluorophenyl)amino)-7-methoxyquinazolin-6-yl)azetidin-1-yl)-2-fluoroprop-2-en-1-one], the EC50 at Ba/F3 stable cells [1] was 200 to 1000 nM; at Ba/F3 stable cells [2] it was more than 1000 nM; on Ba/F3 stable cells [3], 200 to 1000 nM; at Ba/F3 stable cells [4], not above 200 nM; at Ba/F3 stable cells [5], more than 1000 nM; on Ba/F3 stable cells [6], more than 1000 nM.

On to `[2H]C([2H])([2H])Oc1cc2ncnc(Nc3ccc(Cl)c(Cl)c3F)c2cc1C1CN(C(=O)C(=C)F)C1` [Compound 39, 1-(3-(4-((3,4-dichloro-2-fluorophenyl)amino)-7-(methoxy-d3)quinazolin-6-yl)azetidin-1-yl)-2-fluoroprop-2-en-1-one], for which the EC50 on Ba/F3 stable cells [1] is 200 to 1000 nM; on Ba/F3 stable cells [2] it was more than 1000 nM; at Ba/F3 stable cells [3], more than 1000 nM; on Ba/F3 stable cells [4], not above 200 nM; at Ba/F3 stable cells [5], more than 1000 nM; on Ba/F3 stable cells [6] it was more than 1000 nM.

Turning to `C=C(F)C(=O)N[C@H]1C[C@@H](Oc2cc3c(Nc4ccc(Cl)c(Cl)c4F)ncnc3cc2OC)C1` [Compound 40, N-((1s,3s)-3-((4-((3,4-dichloro-2-fluorophenyl)amino)-7-methoxyquinazolin-6-yl)oxy)cyclobutyl)-2-fluoroacrylamide], the EC50 at Ba/F3 stable cells [1] is not above 200 nM; on Ba/F3 stable cells [2], 200 to 1000 nM; at Ba/F3 stable cells [3], 200 to 1000 nM; at Ba/F3 stable cells [4], not above 200 nM; on Ba/F3 stable cells [5] it was 200 to 1000 nM; on Ba/F3 stable cells [6] it was 200 to 1000 nM.

Turning to `C#CC(=O)N1CC(c2cc3c(Nc4ccc(OCc5ccccc5)c(Cl)c4F)ncnc3cc2OC)C1` [Compound 41, 1-(3-(4-((4-(benzyloxy)-3-chloro-2-fluorophenyl)amino)-7-methoxyquinazolin-6-yl)azetidin-1-yl)prop-2-yn-1-one], the EC50 was more than 1000 nM at Ba/F3 stable cells [1]; more than 1000 nM at Ba/F3 stable cells [2]; more than 1000 nM on Ba/F3 stable cells [3]; 200 to 1000 nM on Ba/F3 stable cells [4]; more than 1000 nM on Ba/F3 stable cells [5]; more than 1000 nM on Ba/F3 stable cells [6].

The term EC50 denotes the concentration needed to bring the measured effect to its halfway point. Read a low EC50 as higher potency in that assay.
